Results as given in paper PMC5404532, “Simplified Reversed Chloroquines To Overcome Malaria Resistance to Quinoline-Based Drugs” (Antimicrobial Agents and Chemotherapy, 2017).
Read-outs that look alike come from different tables or passages of the source.

Assays:
P. falciparum D6 (CQS) = experiment: Inhibition of P. falciparum growth, CQS D6 (SYBR green I fluorescence); type: cell-based
Excerpt: (§1) Inhibition of P. falciparum growth.
(§2) CQS (D6) and CQR (Dd2 and 7G8) P. falciparum maintained continuously in culture were used ([38]). […] The fluorescence readings were plotted against log(drug), and the IC50s were obtained from curve fitting performed by nonlinear regression using either Prism (GraphPad) or Excel (Microsoft) software.

P. falciparum Dd2 (CQR) = experiment: Inhibition of P. falciparum growth, CQR Dd2 (SYBR green I fluorescence); type: cell-based
Excerpt: as §1, §2

P. falciparum 7G8 (CQR) = experiment: Inhibition of P. falciparum growth, CQR 7G8 (SYBR green I fluorescence); type: cell-based, Plasmodium falciparum
Excerpt: as §1, §2

mouse spleen lymphocytes = experiment: Cytotoxicity against mouse spleen lymphocytes; type: cell-based; settings: estimated ±50%
P. yoelii = experiment: In vivo 3-day suppressive test against P. yoelii in a murine malaria model; parameters: species or system Plasmodium yoelii; settings: mice, oral gavage, 3 daily doses, water-soluble hydrochloride or phosphate salts; errors estimated ±20%
Method: A selection of the compounds (compounds 9, 10, 12, 21, 23, and 24) was tested in vivo against P. yoelii in a murine malaria model. The compounds were first converted to water-soluble hydrochloride or phosphate salts for administration in aqueous solution. Efficacy testing was carried out using 4 different dose levels with 5 mice at each level, administered by oral gavage. […] A single-dose toxicity evaluation was also performed, using 1 or 2 mice in each case. The doses were limited by water solubilities.
In vivo 3-day suppressive test.
Female CF-1 mice, at 4 to 5 weeks of age, were injected intravenously with 10^6 erythrocytes infected with P. yoelii ([43][–][45]). The following day, and then daily for a total of 3 doses, 5 mice each were administered the appropriate dose of the compound by gavage and evaluated by direct microscopic analysis of Giemsa-stained blood smears ([46]) 1 day after the final dose. The Portland State University Institutional Animal Care and Use Committee approved the protocols involving animals used in this study.

[1] = Single-dose toxicity evaluation in mice; type: in vivo; settings: single-dose experiments on 1 or 2 mice/compound; doses limited by water solubility
Method: The compounds were first converted to water-soluble hydrochloride or phosphate salts for administration in aqueous solution. Efficacy testing was carried out using 4 different dose levels with 5 mice at each level, administered by oral gavage. […] A single-dose toxicity evaluation was also performed, using 1 or 2 mice in each case.

[2] = In vitro heme binding (optical titration); settings: 5 μM heme, phosphate buffer 100 mM, pH 5.7; read-out: heme binding dissociation constant (Kd)
Method: In vitro heme binding and β-hematin inhibition.
A 5 mM stock solution of heme was prepared by dissolving heme chloride in 0.1 mM NaOH by incubation at 37°C for 30 min. The solution was stored at 4°C for no more than 1 month. At the beginning of each experiment, the stock heme solution was diluted to 5 μM in phosphate buffer (100 mM, pH 5.7) and allowed to equilibrate for 4 h. The 4-h equilibration allowed for the initial heme absorbance to stabilize prior to beginning the titration. Optical titrations with each compound were performed by successive addition of aliquots of its stock solution to the 5 μM heme solution. […] Equilibrium binding constants were determined by nonlinear least-squares analysis ([39]).

[3] = Plasmodium falciparum, D6, 72 h; read-out: IC50 (nM) for P. falciparum D6
[4] = Plasmodium falciparum, DD2, 72 h; read-out: IC50 (nM) for P. falciparum Dd2
[5] = Plasmodium falciparum, 7G8, 72 h, read-out: IC50 (nM) for P. falciparum 7G8

SMILES	IC50 (P. falciparum D6 (CQS); [3])	IC50 (P. falciparum Dd2 (CQR); [4])	IC50 (P. falciparum 7G8 (CQR); [5])	other results
CCN(CC)CCCC(C)Nc1ccnc2cc(Cl)ccc12 (stereo not shown) [CQ, chloroquine]	–	–	–	IC50 (P. falciparum D6 (CQS); Plasmodium falciparum, D6, 72 h, read-out: IC50 (nM) for P. falciparum D6): 6.9 nM; IC50 (P. falciparum D6 (CQS); Plasmodium falciparum, D6, read-out: IC50 from dose-response curve against CQS D6 (Fig 4a)): 7.9 nM; IC50 (P. falciparum Dd2 (CQR); Plasmodium falciparum, DD2, 72 h, read-out: IC50 (nM) for P. falciparum Dd2): 102 nM; IC50 (P. falciparum Dd2 (CQR); Plasmodium falciparum, DD2, read-out: IC50 from dose-response curve against CQR Dd2 (Fig 4b)): 71.7 nM; IC50 (P. falciparum 7G8 (CQR); Plasmodium falciparum, 7G8, 72 h, read-out: IC50 (nM) for P. falciparum 7G8, CQR 7G8, 72 h, averages from at least 3 runs, normalized to CQ 108 nM, uncertainty ±15%): 106 nM; IC50 (P. falciparum 7G8 (CQR); read-out: IC50 (nM) for P. falciparum 7G8, CQR 7G8, 72 h, averages from at least 3 runs, normalized to CQ 108 nM, uncertainty ±15%): 108 nM
Clc1ccc2c(NCCCN3CCN(c4ccccc4-c4ccccc4)CC3)ccnc2c1 [Compound 6, N-(3-(4-(Biphenyl-2-yl)piperazin-1-yl)propyl)-7-chloroquinolin-4-amine]	1.2 nM	2.6 nM	–	Cytotoxicity (mouse spleen lymphocytes): 1,700 nM
Clc1ccc2c(NCCCN3CCN(c4cccc(-c5ccccc5)c4)CC3)ccnc2c1 [Compound 7, N-(3-(4-(Biphenyl-3-yl)piperazin-1-yl)propyl)-7-chloroquinolin-4-amine]	0.9 nM	1.8 nM	–	Cytotoxicity (mouse spleen lymphocytes): 2,100 nM
Clc1ccc2c(NCCCN3CCN(c4ccc(-c5ccccc5)cc4)CC3)ccnc2c1 [Compound 8, N-(3-(4-(Biphenyl-4-yl)piperazin-1-yl)propyl)-7-chloroquinolin-4-amine]	0.6 nM	0.9 nM	0.2 nM	IC50 (P. falciparum D6 (CQS); Plasmodium falciparum, D6; read-out: IC50 from dose-response curve against CQS D6 (Fig 4a)): 0.7 nM; IC50 (P. falciparum Dd2 (CQR); Plasmodium falciparum, DD2; read-out: IC50 from dose-response curve against CQR Dd2 (Fig 4b)): 0.7 nM; Cytotoxicity (mouse spleen lymphocytes): 2,200 nM
Clc1ccc(N2CCN(CCCNc3ccnc4cc(Cl)ccc34)CC2)cc1 [Compound 10, 7-Chloro-N-(3-(4-(4-chlorophenyl)piperazin-1-yl)propyl)quinolin-4-amine]	0.3 nM	0.5 nM	0.1 nM	ED50 (P. yoelii): 8 mg/kg/day; Toxicity observation [1]: Death at 260 mg/kg, delayed death of 2/4 mice at 64 mg/kg
Fc1ccc(N2CCN(CCCNc3ccnc4cc(Cl)ccc34)CC2)cc1 [Compound 11, 7-Chloro-N-(3-(4-(4-fluorophenyl)piperazin-1-yl)propyl)quinolin-4-amine]	2 nM	0.2 nM	0.2 nM	Kd [2]: ~5000 nM
FC(F)(F)c1ccc(N2CCN(CCCNc3ccnc4cc(Cl)ccc34)CC2)cc1 [Compound 13, 7-Chloro-N-(3-(4-(4-(trifluoromethyl)phenyl)piperazin-1-yl)propyl)quinolin-4-amine]	0.06 nM	0.2 nM	0.3 nM	Kd [2]: ~5000 nM
O=[N+]([O-])c1ccc(N2CCN(CCCNc3ccnc4cc(Cl)ccc34)CC2)cc1 [Compound 14, 7-Chloro-N-(3-(4-(4-nitrophenyl)piperazin-1-yl)propyl)quinolin-4-amine]	0.9 nM	0.8 nM	0.3 nM	–
Cc1ccc(N2CCN(CCCNc3ccnc4cc(Cl)ccc34)CC2)cc1 [Compound 15, 7-Chloro-N-(3-(4-p-tolylpiperazin-1-yl)propyl)quinolin-4-amine]	0.1 nM	1.3 nM	0.5 nM	–
Clc1ccc2c(NCCCN3CCN(Cc4ccccc4)CC3)ccnc2c1 [Compound 17, N-(3-(4-Benzylpiperazin-1-yl)propyl)-7-chloroquinolin-4-amine]	2.4 nM	7 nM	9 nM	–
Clc1ccc2c(NCCCN3CCN(CCc4ccccc4)CC3)ccnc2c1 [Compound 18, 7-Chloro-N-(3-(4-phenethylpiperazin-1-yl)propyl)quinolin-4-amine]	0.5 nM	1 nM	1.2 nM	–
Clc1ccc2c(NCCCN3CCN(Cc4cccc5ccccc45)CC3)ccnc2c1 [Compound 19, 7-Chloro-N-(3-(4-(naphthalen-1-ylmethyl)piperazin-1-yl)propyl)quinolin-4-amine]	1.1 nM	1.1 nM	0.8 nM	–
O=C(c1ccccc1)N1CCN(CCCNc2ccnc3cc(Cl)ccc23)CC1 [Compound 20, N-(3-(4-Benzoylpiperazin-1-yl)propyl)-7-chloroquinolin-4-amine]	4 nM	7 nM	7 nM	–
Clc1ccc2c(NCCCN3CCN(c4ccccn4)CC3)ccnc2c1 [Compound 21, 7-Chloro-N-(3-(4-(pyridin-2-yl)piperazin-1-yl)propyl)quinolin-4-amine]	0.7 nM	1.1 nM	0.9 nM	Cytotoxicity (mouse spleen lymphocytes): 13,300 nM; ED50 (P. yoelii): 6 mg/kg/day; Toxicity observation [1]: Well tolerated at 435 mg/kg
Clc1ccc2c(NCCCN3CCN(c4ccncc4)CC3)ccnc2c1 [Compound 22, 7-Chloro-N-(3-(4-(pyridin-4-yl)piperazin-1-yl)propyl)quinolin-4-amine]	0.5 nM	1.6 nM	1.1 nM	–
Clc1ccc2c(NCCCN3CCN(c4ncccn4)CC3)ccnc2c1 [Compound 23, 7-Chloro-N-(3-(4-(pyrimidin-2-yl)piperazin-1-yl)propyl)quinolin-4-amine]	1.4 nM	2.3 nM	–	Cytotoxicity (mouse spleen lymphocytes): 28,000 nM; ED50 (P. yoelii): 7 mg/kg/day
O=[N+]([O-])c1ccc(N2CCN(CCCNc3ccnc4cc(Cl)ccc34)CC2)nc1 [Compound 24, 7-Chloro-N-(3-(4-(5-nitropyridin-2-yl)piperazin-1-yl)propyl)quinolin-4-amine]	0.3 nM	0.5 nM	0.5 nM	ED50 (P. yoelii): 3 mg/kg/day; Toxicity observation [1]: Well tolerated at 153 mg/kg^c
FC(F)(F)c1ccc(N2CCN(CCCNc3ccnc4cc(Cl)ccc34)CC2)nc1 [Compound 25, 7-Chloro-N-(3-(4-(5-(trifluoromethyl)pyridin-2-yl)piperazin-1-yl)propyl)quinolin-4-amine]	0.5 nM	0.9 nM	1 nM	–
O=[N+]([O-])c1cnc(N2CCN(CCCNc3ccnc4cc(Cl)ccc34)CC2)c([N+](=O)[O-])c1 [Compound 26, 7-Chloro-N-(3-(4-(3,5-dinitropyridin-2-yl)piperazin-1-yl)propyl)quinolin-4-amine]	0.5 nM	0.9 nM	0.9 nM	–
O=[N+]([O-])c1ccc(N2CCN(CCCNc3ccnc4cc(Cl)ccc34)CC2)c([N+](=O)[O-])c1 [Compound 27, 7-Chloro-N-(3-(4-(2,4-dinitrophenyl)piperazin-1-yl)propyl)quinolin-4-amine]	0.3 nM	0.5 nM	0.4 nM	–
